Assays:
[1] = biological target: T1, Acetylcholinesterase (Homo sapiens, UniProt P22303); test: Inhibition of recombinant human AChE using acetylthiocholine iodide as substrate preincubated for 20 mins followed by substrate addition and measured for 5 mins by Ellman's assay
[2] = biological target: T2, Cholinesterase (Homo sapiens, UniProt P06276); test: Inhibition of human serum BuChE using butyrylthiocholine iodide as substrate preincubated for 20 mins followed by substrate addition and measured for 5 mins by Ellman's assay
T2 sequence (P06276 whole entry): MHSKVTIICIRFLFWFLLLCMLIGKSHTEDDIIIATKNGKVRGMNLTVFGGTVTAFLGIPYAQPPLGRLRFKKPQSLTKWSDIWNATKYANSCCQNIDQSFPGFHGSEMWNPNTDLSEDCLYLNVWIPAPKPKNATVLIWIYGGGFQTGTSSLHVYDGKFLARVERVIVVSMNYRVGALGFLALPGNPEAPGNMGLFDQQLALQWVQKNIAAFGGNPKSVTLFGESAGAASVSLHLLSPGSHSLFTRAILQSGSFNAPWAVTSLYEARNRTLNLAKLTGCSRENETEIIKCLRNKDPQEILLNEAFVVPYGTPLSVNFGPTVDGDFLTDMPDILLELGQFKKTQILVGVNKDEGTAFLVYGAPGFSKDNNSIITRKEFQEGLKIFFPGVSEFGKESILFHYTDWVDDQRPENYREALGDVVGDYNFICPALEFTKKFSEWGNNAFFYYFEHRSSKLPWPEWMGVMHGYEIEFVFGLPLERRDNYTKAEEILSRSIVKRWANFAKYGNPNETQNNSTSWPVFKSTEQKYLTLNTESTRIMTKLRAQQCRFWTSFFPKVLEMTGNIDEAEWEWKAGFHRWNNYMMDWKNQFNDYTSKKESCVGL

[3] = in vitro; conditions: human, HepG2 cells
Description: Cytotoxicity against human HepG2 cells assessed as cell viability at 1 uM by MTT assay relative to control

[4] = in vitro; conditions: human, HepG2 cells; remark: listed apart in the source
Description: Cytotoxicity against human HepG2 cells assessed as cell viability at 10 uM by MTT assay relative to control

[5] = in vitro; conditions: human, HepG2 cells; remark: listed apart in the source
Description: Cytotoxicity against human HepG2 cells assessed as cell viability at 100 uM by MTT assay relative to control

[6] = in vitro; conditions: human, HepG2 cells; remark: listed apart in the source
Description: Cytotoxicity against human HepG2 cells assessed as cell viability at 300 uM by MTT assay relative to control

[7] = biological target: T1, Acetylcholinesterase; test: Inhibition of recombinant human AChE using acetylthiocholine iodide as substrate preincubated for 30 mins followed by substrate addition and measured for 20 mins by Ellman's assay
[8] = biological target: T2, Cholinesterase; test: Inhibition of recombinant human BuChE using butyrylthiocholine as substrate preincubated for 30 mins followed by substrate addition and measured for 20 mins by Ellman's assay
[9] = species on record: Homo sapiens; test: Selectivity ratio of IC50 for recombinant human BuChE to IC50 for recombinant human AChE
[10] = biological target: T1, Acetylcholinesterase; test: Potency index, ratio of tacrine IC50 to test compound IC50 for recombinant human AChE
[11] = biological target: T2, Cholinesterase; test: Potency index, ratio of tacrine IC50 to test compound IC50 for human serum BuChE

T1 sequence (P22303 whole entry): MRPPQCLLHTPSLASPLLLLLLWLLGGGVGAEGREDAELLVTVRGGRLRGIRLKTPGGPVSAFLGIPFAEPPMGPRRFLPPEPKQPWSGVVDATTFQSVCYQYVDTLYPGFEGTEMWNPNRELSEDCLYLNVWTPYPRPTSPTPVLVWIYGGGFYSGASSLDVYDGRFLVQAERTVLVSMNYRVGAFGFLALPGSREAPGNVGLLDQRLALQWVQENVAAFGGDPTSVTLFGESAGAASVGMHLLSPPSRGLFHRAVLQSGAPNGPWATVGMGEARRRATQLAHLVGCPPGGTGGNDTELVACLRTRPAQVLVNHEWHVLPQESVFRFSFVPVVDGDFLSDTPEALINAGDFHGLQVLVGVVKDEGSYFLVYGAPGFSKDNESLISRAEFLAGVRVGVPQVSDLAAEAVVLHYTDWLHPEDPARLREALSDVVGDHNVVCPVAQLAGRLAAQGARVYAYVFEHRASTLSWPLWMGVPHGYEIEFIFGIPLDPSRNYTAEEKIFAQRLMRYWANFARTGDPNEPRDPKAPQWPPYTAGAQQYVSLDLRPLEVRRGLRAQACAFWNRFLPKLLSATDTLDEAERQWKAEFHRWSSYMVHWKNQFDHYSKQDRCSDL

Cn1c2nc3ccccc3c-2c(NCCCCNc2c3c(nc4ccccc24)CCCC3)c2ccccc21
IC50 [1]: 53 nM
IC50 [2]: 21.8 nM
viability at 1 µM [3]: 99.5%
viability at 10 µM [4]: 37.2%
viability at 100 µM [5]: 33.8%
viability at 300 µM [6]: 34.8%

Nc1c2c(nc3cc(Cl)ccc13)C[C@H]1C=C(CCCCn3cc(CO)nn3)C[C@H]2C1
IC50 [7]: 0.43 nM
IC50 [8]: 210 nM
Ratio IC50 [9]: 488

Cn1c2nc3ccccc3c-2c(NCCCCCCNc2c3c(nc4ccccc24)CCCC3)c2ccccc21
IC50 [1]: 1.25 nM
IC50 [2]: 9 nM
viability at 1 µM [3]: 40.9%
viability at 10 µM [4]: 34.9%
viability at 100 µM [5]: 36.2%
viability at 300 µM [6]: 36.5%

Cn1c2nc3ccccc3c-2c(NCCCCCCCCNc2c3c(nc4ccccc24)CCCC3)c2ccccc21
IC50 [1]: 0.95 nM
IC50 [2]: 2.29 nM
Ratio IC50 [10]: 368
Ratio IC50 [11]: 17.4
viability at 1 µM [3]: 78.1%
viability at 10 µM [4]: 41.4%
viability at 100 µM [5]: 38.4%
viability at 300 µM [6]: 37.9%

— ChEMBL document CHEMBL4261526 (Medchemcomm, 2017)
